The test system of the assay is CEM cells HIV-1 protection, formazan growth assay. The assay is described as follows: NCI AIDS Antiviral Assay. Particulars: for IC50: measured here: growth of uninfected CEM cells. The method in brief: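 Human CEM cells, uninfected and HIV-1-infected, exposed to five drug concentrations; growth measured by soluble formazan assay and scored as percent protection from infection, with protecting compounds retested.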

Where “and” joins values, the source holds several entries; their conditions need not be identical. Identical values can stand only once. Calls of active or inactive are those of the source.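 Rule for the calls: active = compounds giving half or more protection of infected cells from virus-caused growth loss, again on retest; inactive = the rest.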

This is an account of results in PubChem BioAssay AID179 (DTP/NCI, 2004).

Usually EC50 stands for the midpoint of the concentration-response curve. For orientation: IC50 means the concentration at which inhibition is half-maximal. Read a high IC50 as a need for much substance.

For `c1cc(-c2ncc3ccncc3n2)ccn1`, the EC50 is above 64.6 µM and the half-inhibitory concentration (IC50) was above 64.6 µM. Regarding `NC(CSS(=O)(=O)O)=NCC1CCCCC1`, the EC50 is above 200 µM and the half-inhibitory concentration (IC50) came to 58.9 µM. Consider `CN1CC2CC3=C(CCC45CC6C(C=C34)C63CCC4(CC67CCC8C9(C)CCCC8%10C(C6CC4CC7%10)N(C)C9)OC53)C(C)(C2)C1` (stereo not given), for which the outcome was inactive. As for `CCOC(=O)c1cn(-c2ccc([N+](=O)[O-])cc2)c(=S)n2c1nc1ccccc12`, the EC50 is above 200 µM and the IC50 is 9.33 µM. The corresponding values for `O=NC1(c2ccccc2)CCCCC1[N+](=O)[O-]` (stereo not given) are above 200 µM and above 200 µM. The corresponding values for `O=C1CC(c2ccccc2)n2c(nc3ccccc32)N1` (stereo not given) are above 151 µM and 67.6 µM. In the case of `NNC(=S)NN/C=C(\C=Nc1ccccc1)[N+](=O)[O-]`, the EC50 was above 178 µM and the IC50 worked out at 155 µM. The corresponding values for `NC(=O)N/N=C1/CCCCC1c1ccccc1` (stereo not given) are above 407 µM and above 407 µM. With `Cc1cc(-c2ccc(N=Nc3ccc4c(S(=O)(=O)O)cc(S(=O)(=O)O)c(N)c4c3O)c(C)c2)ccc1N=Nc1ccc2c(S(=O)(=O)O)cc(S(=O)(=O)O)c(N)c2c1O`, the 50% effective concentration (EC50) was above 9.33 µM. Take `CSC1=NCc2c(sc3c2CCCC3)N1`: the EC50 was above 200 µM and the concentration for half-maximal inhibition (IC50) amounted to 35.5 µM. On the same counts, the results for `Cn1c(=O)oc2cc(C(O)CN3CCN(Cc4ccc5c(c4)OCO5)CC3)ccc21` (stereo not given) are above 200 µM and above 200 µM. The corresponding values for `COc1ccc(CCCNC(=O)Cc2cc(OC)c(OC)cc2CO)cc1OC` are above 200 µM and 17.8 µM. With `S=c1[nH]nc(COc2ccc(Cl)cc2)o1`, the EC50 is above 204 µM and the half-inhibitory concentration (IC50) is above 204 µM. Regarding `O=c1c(-c2ccccc2)c(S)sc(S)c1-c1ccccc1`, the EC50 was above 200 µM and the half-inhibitory concentration (IC50) is above 200 µM. Turning to `CCc1ccccc1N=NC(=O)NNc1ccccc1CC`, the EC50 was above 200 µM and the 50% inhibitory concentration (IC50) amounted to 70.8 µM.

For `CCOc1ccc2nc(NC(=O)CC(C)=O)sc2c1`, the EC50 was above 200 µM and the IC50 is 27.5 µM. On the same counts, the results for `CC12C(C(=O)O)C1(c1ccccc1)C2C(=O)O` (stereo not given) are above 1070 µM and above 1070 µM. Regarding `O=C(NC(CO)C(=O)N[C@H]1c2ccsc2C(=O)[C@H]1O)OCc1ccccc1` (stereo not given in full), the outcome was inactive.

Consider `CC(=O)Nc1ccc(C(=O)NN2C(=O)C(Cl)C2/C=C/c2ccccc2)cc1` (stereo not given), for which the EC50 was 135 µM and the half-maximal inhibitory concentration (IC50) was found to be 166 µM. Regarding `CC(=O)c1sc2c(c1O)c(=O)n(-c1ccccc1)c(=S)n2-c1ccccc1`, the EC50 is above 240 µM and the IC50 worked out at 70.8 µM. On to `O=[N+]([O-])c1ccc2c(c1)n1c(N3CCCC3)[n+]3ccccc3c1c1c3cccc[n+]3c(N3CCCC3)n21`, for which the EC50 is 72.4 µM and the IC50 came to 77.6 µM. Consider `Nc1nccc(NCC2(CO)CCC2)n1`, for which the EC50 was above 200 µM and the IC50 is above 200 µM. Turning to `CCN(CC)CCOc1ccc(/C=C(\C#N)c2ccc(OCCN(CC)CC)cc2)cc1`, the EC50 was above 53.7 µM; the IC50 is 3.72 µM and 6.92 µM.

Take `COc1cc(-c2nc(N)c(C#N)c3c2CCS(=O)(=O)c2ccc(C)cc2-3)cc(OC)c1OC`: the EC50 was above 200 µM and the IC50 was above 200 µM. Turning to `C/C(CC(O)(C(F)(F)F)C(F)(F)F)=N\N`, the EC50 is above 200 µM and the IC50 was above 200 µM. With `NC(=O)CCC(Nc1c2ccccc2nc2ccccc12)C(=O)O` (stereo not given), the outcome was inactive. Same read-out and setting: next, `CC(Cc1ccccc1)NN(CS(=O)(=O)O)CS(=O)(=O)O` (stereo not given): “inactive”. `COP(=O)(OC)C1=c2c(C)noc2=C2C=COC2C1=O` (stereo not given): the EC50 was above 200 µM and the IC50 is above 200 µM. In the case of `O=c1[nH]nc(Cc2ccccc2)n1CCO`, the result was inactive. For the molecule `CCOC(=O)Cn1sc2ncc([N+](=O)[O-])cc2c1=O`, the EC50 is above 13.5 µM and the IC50 amounted to 8.91 µM. The corresponding values for `c1cc2cc(c1)CNCCNCCNCc1cccc(c1)CNCCNCCNC2` are above 138 µM and 60.3 µM. For `CC1CN(C2C=CC(=O)CC2)C(=O)NC1=O` (stereo not given), the EC50 is above 1120 µM and the IC50 was 7.76 µM.

Turning to `COc1cc(COC(=O)N[C@H](C(=O)O)C(C)(C)C)c([N+](=O)[O-])cc1OC`, the EC50 is above 676 µM and the half-inhibitory concentration (IC50) is above 676 µM.

Regarding `COc1cc(/C=C2\C(=O)N(c3cccc(Cl)c3)C(c3ccccc3)S2(=O)=O)cc(OC)c1OC` (stereo not given), the EC50 was above 200 µM and the half-inhibitory concentration (IC50) came out at 112 µM.

Regarding `CCOc1ccc(NC(=O)CC2Sc3ccccc3NC2=O)cc1` (stereo not given), the EC50 was above 11 µM and the half-inhibitory concentration (IC50) was above 11 µM. `CCOC(=O)c1c(-c2ccccc2)csc1N`: the half-maximal effective concentration (EC50) was above 123 µM and the concentration for half-maximal inhibition (IC50) turned out to be 107 µM.

Regarding `CCN(CC)Cc1cc(O)c(CN(CC)CC)cc1O`, the EC50 was above 891 µM and the concentration for half-maximal inhibition (IC50) worked out at 72.4 µM. Take `O=C(OC1C=C=CS(=O)(=O)CC#C/C=C\1)c1cnc2ccccc2n1` (stereo not given): the EC50 is above 200 µM and the IC50 worked out at 102 µM. On the same counts, the results for `CCOC(=O)Cn1c(=O)n(C)c(=O)c2c1ncn2Cc1ccccc1` are above 724 µM and 427 µM.

On to `CCCCCCCCCCNCCSSCc1ccccc1`, for which the EC50 is above 200 µM and the concentration for half-maximal inhibition (IC50) was determined as 8.91 µM. For `O=c1oc2c/c(=C\c3ccc([N+](=O)[O-])cc3)c(=O)c3cccc1c3-2`, the EC50 was above 200 µM and the half-maximal inhibitory concentration (IC50) worked out at 30.9 µM. Regarding `CCNc1ncnc2sc(SCc3ccccc3)nc12`, the EC50 is above 200 µM and the IC50 was above 200 µM. On to `C/C(=N\N=C(/[Se])N1CC2CCC(CC2)C1)c1ccccn1`, for which the EC50 was above 53.7 µM and the IC50 came to 0.17 µM. On the same counts, the results for `CC1(C)OC(COP2OCCO2)[C@H](COP2OCCO2)O1` (stereo not given in full) are above 200 µM and above 200 µM. Turning to `Cn1cc(C(=O)c2ccccc2)c2ccccc2c1=O`, the outcome was inactive. As for `Cc1cc(N)ccc1C=O`, the EC50 is above 200 µM and the concentration for half-maximal inhibition (IC50) was above 200 µM. In the case of `COC12c3ccccc3-c3ccccc3C1[C@@H](C(=O)O)[C@H]2C(=O)O` (stereo not given in full), the EC50 was above 776 µM and the concentration for half-maximal inhibition (IC50) was above 776 µM.

As for `O=C(O)c1cc(I)cc(I)c1O.O=[N+]([O-])C1CCC(O)C2[N-]CCCC21.[Cu+]` (stereo not given), the EC50 is above 200 µM and the IC50 worked out at 5.62 µM. For `Cc1ccccc1CN1C2=NCCN2C(=O)C2=C1CCN(S(=O)(=O)c1ccc(Cl)c(S(N)(=O)=O)c1)C2`, the EC50 was above 200 µM and the 50% inhibitory concentration (IC50) is 93.3 µM. The corresponding values for `O=C1CCCC(=O)N1n1c(Cc2ccccc2)n[nH]c1=O` are above 200 µM and above 200 µM. On the same counts, the results for `CC(C)COC(=O)CS(=O)(=O)O` are above 200 µM and above 200 µM. On the same counts, the results for `CC(=O)Oc1c2c(c(OC(C)=O)c3c1n(C(C)=O)c1ccccc1n3C(C)=O)n(C(C)=O)c1ccccc1n2C(C)=O` are above 33.1 µM and 5.89 µM. Turning to `CCOc1ccc(-n2c(=O)c3nn4c(=O)n(-c5ccc(OCC)cc5)c(=O)c4nn3c2=O)cc1`, the EC50 is above 200 µM and the 50% inhibitory concentration (IC50) was above 200 µM.

With `CN(CCc1ccccn1)c1nc(=[N+](C)C)ss1`, the result was inactive. Turning to `CC1(C)OC2C(=O)OC(COCc3ccccc3)C2O1` (stereo not given), the EC50 was above 36.3 µM and the IC50 was above 36.3 µM.

Regarding `CCC1(CC)C(=O)NC(=S)N=C1N`, the result was inactive. On the same count and under the same terms, for `CN(C)C1=NC2=S(SC(Nc3ccccc3)=N2)S1` (stereo not given) the value was “inactive”. For `CC1COC(c2cn[nH]c2C(N)=O)C1O` (stereo not given), the EC50 is above 200 µM and the half-inhibitory concentration (IC50) was above 200 µM. Regarding `C=C(C)C(=O)O[C@H]1CC2(CO)O[C@@H]2CC/C(COC(C)=O)=C/C2OC(=O)C(=C)[C@@H]21` (stereo not given in full), the EC50 was above 200 µM and the 50% inhibitory concentration (IC50) turned out to be 4.37 µM. On the same counts, the results for `O=C(N[C@H](CO)[C@H](O)c1ccc([N+](=O)[O-])cc1)C(Cl)Cl` are above 200 µM and above 200 µM. On the same counts, the results for `COc1cccc(CC2C(=O)N=C(NC(C)=O)N2C)c1OC(C)=O` (stereo not given) are above 200 µM and 151 µM. With `O=c1[nH]c(=O)n(C2CC(O)C(CO)O2)cc1S` (stereo not given), the result was inactive. Same read-out and setting: next, `O=C(NCCCNC(=O)c1ccc2cc(O)c(O)cc2c1)c1ccc2cc(O)c(O)cc2c1`: “inactive”; `CC1(C(=O)Nc2ccc3ccccc3c2)CC2(C)CC(C)(C1)C(O)NC2=O` (stereo not given): “inactive”. In the case of `Cn1c(=O)c2c3ccccc3c(C(=O)c3ccccc3)n2c2ccccc21`, the EC50 was above 51.3 µM and the half-inhibitory concentration (IC50) worked out at 3.09 µM. On the same counts, the results for `C=C=CP(=O)(c1ccccc1)c1ccccc1` are above 151 µM and 15.5 µM. As to `CC(O)C(NC(=O)C1CSSCC(NC(=O)C(Cc2ccccc2)NC(=O)OCC2c3ccccc3-c3ccccc32)C(=O)NC(Cc2ccccc2)C(=O)NC(Cc2cn(C=O)c3ccccc23)C(=O)NC(CCCCNC(=O)OCC2c3ccccc3-c3ccccc32)C(=O)NC(C(C)O)C(=O)N1)C(N)=O` (stereo not given), the EC50 is above 50.1 µM and the IC50 turned out to be 6.46 µM. Regarding `Cn1[nH]c2[nH]c(=S)sc(=S)c2c1=O`, the EC50 is above 200 µM and the concentration for half-maximal inhibition (IC50) is above 200 µM.

Turning to `Cn1ncc2c(N(N)CCO)nc(-c3ccc([N+](=O)[O-])o3)nc21`, the EC50 is above 200 µM and the 50% inhibitory concentration (IC50) was determined as 10.7 µM. The corresponding values for `CC(=O)c1cc2ccccc2oc1=O` are above 138 µM and above 138 µM.

Regarding `NCP(=O)(O)OCC(=O)O`, the outcome was inactive. For the molecule `C=C1CCOC2(C(O)C(C)(O)CO)NC(=O)C1(O)NC2=O` (stereo not given), the outcome was inactive. Turning to `O=[N+]([O-])/C=C(\CS(=O)(=O)c1ccccc1)c1ccc2c(c1)OCO2`, the EC50 was above 81.3 µM and the IC50 amounted to 31.6 µM. On the same counts, the results for `COC(=O)c1ccc(N2CC=C(C)C(c3ccc(OC)cc3)O2)cc1` (stereo not given) are above 15.5 µM and above 15.5 µM. The corresponding values for `NC1=NS(=O)(=O)N=C(N)C1=NNc1ccccc1` are above 933 µM and 141 µM.
